Source: patent publication US20220133894A1, “BISPHOSPHONATE-LINKED COMPOUNDS” (OREGON HEALTH & SCIENCE UNIVERSITY, priority 2019, published 2022)

Key:
PC3-M-luc cells = assay: PCa orthotopic implantation, primary tumor growth and lung metastasis; type: in vivo, mice; settings: orthotopic PC3-M-luc, 150 mg/kg KBU2046 daily
Method: To assess the efficacy of a spectrum of docetaxel concentrations, mice received orthotopic implants of PC3-M-luc cells, were treated with 0, 10 or 20 mg/kg docetaxel, and tumor growth monitored with weekly IVIS imaging. […] Subsequently, mice with orthotopic implants of PC3-M-luc cells were treated with docetaxel, KBU2046, docetaxel+KBU2046 or vehicle, as denoted, and effects on primary tumor growth and lung metastasis quantified (FIGS. 2A, 2B, and 2C).
Cohorts of N=10 mice bearing orthotopic implants of PC3-M-luc cells were treated daily with 150 mg/kg KUB2046 (46), intraperitoneal docetaxel 7.5 mg/kg weekly (doc), the combination (doc+46), or with oral and intraperitoneal vehicle (CO). KBU2046 treatment began 3 days before implantation and docetaxel began 1 week after. (A) Lung metastasis measured by qPCR for human Alu sequences, expressed as percent control (B) Weekly IVIS imaging of tumor. (C) Tumor weight. * denotes P<0.05 for differences between cohorts denoted by bars. All data are mean±SEM.
PCa orthotopic implantation: Orthotopic implantation of 2.5×10^5 PC3M-luc into 7-8 week old male athymic mice was performed as previously described by us (5, 52 Xu et al., above; and Pavese et al., J Vis Exp, e50873 (2013)). Daily oral gavage treatment with 150 mg/kg KBU2046 or was initiated 3 days prior to implantation and continued throughout the duration of the study. Weekly IP injections with 7.5 mg/kg docetaxel or control were administered beginning one week post implantation. Primary tumor out growth was monitored via weekly IVIS imaging. At the completion of the study the primary tumor was resected and weighed and lungs were resected and snap frozen. To determine the human PCa metastatic burden in each mouse lung, the snap frozen tissue was pulverized, DNA isolated and Alu-sequencing performed as previously described (19). […] (SEQ ID NO: 3). The 144RH probe was labeled with a 5′ fluorescent reporter (6-FAM) and a 3′ fluorescent quencher (Black Hole Quencher). The relative content of human DNA was calculated with using the comparative CT method, CT (sample)-CT(negative control). All samples were run in triplicate and were repeated.

[1] = system: prostate specific antigen (PSA); assay: PSA expression by qRT/PCR in LNCaP cells; type: cell-based, human; settings: LNCaP cells in androgen depleted media
Method: Cells were cultured in media depleted of androgen and after a washout of 72 hrs were treated with the synthetic androgen R1881, KBU2046, enzalutamide and/or vehicle (control), and resultant effects upon induction of the androgen-responsive gene, prostate specific antigen (PSA) were measured (FIG. 3A).
LNCaP or VCaP cells cultured in hormone free media were treated with R1881 (R), KBU2046 (46) and/or enzalutamide (E). (FIGS. 3A and 3B) Effects on AR-responsive gene expression. PSA expression was measured by qRT/PCR, normalized to GAPDH and expressed as a percent of control cells (N=3 replicates); * denotes P<0.05 for groups separated by bar. (FIGS. 3C and 3D) Effects on cell growth. Three day growth assays were performed. Data are the number of viable cells, expressed as % of control (N=3 replicates); * P<0.05 compared to control. (E) Effects on AR activation. Western blots of nuclear (N) and cytoplasmic (C) preparations of cell extracts were probed for AR, laminin 1 or α-tubulin. (FIGS. 3F and 3G) Effects on tumor outgrowth after androgen deprivation therapy. LNCaP/AR-luc cells were implanted subcutaneously (N=6 mice/cohort) or orthotopic (N=15 mice/cohort were implanted; N=5 yielded tumors) into castrate mice, treatment with KBU2046 began as noted, and weekly IVIS imaging performed. Data are tumor size, expressed as luminescence intensity. All data are expressed as mean±SEM.
RNA was isolated and qRT/PCR performed as previously described by us (Ding et al., J Biomol Tech 18, 321-330 (2007)). Resultant data were analyzed using the 2^−ΔΔt method (Livak et al., Methods 25, 402-408 (2001)), normalized to GAPDH, for the following primer/probe sets (ABI) PSA (Hs02576345_m1) and GAPDH (Hs99999905_m1). Assays were performed in triplicate, and were repeated.

O=C1c2ccccc2OCC1c1ccc(F)cc1 (stereo not drawn) [KBU2046, 3-(4-fluorophenyl)chroman-4-one]
decrease of tumor weight compared to control (PC3-M-luc cells; docetaxel 7.5 mg/kg weekly): no significant effect
decrease of lung metastasis compared to control (human Alu qPCR) (PC3-M-luc cells; docetaxel 7.5 mg/kg weekly intraperitoneal): 20%
PSA expression [1]: no significant effect
